In this assay the test system is PBMCs. The assay is described as follows: Calcium-derived fluorescence check of immobilized Fluo-4-stained PBMCs with a calcium ionophore. The following applies: final concentration 1 μg/mL; PBMCs immobilized on BAM-modified glass bottom dish; FIG. 8/9. Format: cell-based. The method, then:
It is found from FIG. 7 that the PBMCs can be immobilized under a dense state at positions subjected to the BAM modification. […] It was able to be recognized that the cells were immobilized so as to satisfy the condition. In addition, to recognize whether or not fluorescence derived from calcium was able to be observed with the immobilized cells, a calcium ionophore (A23187) was added at a final concentration of 1 μg/mL. […] FIG. 8 is a fluorescence image before the addition of the calcium ionophore, and FIG. 9 is a fluorescence image after the addition.
In this Example, the fluorescence images were acquired with an inverted microscope (TE200-U, manufactured by Nikon Corporation), a CCD camera (EM-CCD DIGITAL CAMERA/C9100-13, manufactured by Hamamatsu Photonics K.K.), and a filter set (excitation: from 450 nm to 490 nm, DM: 505 nm, fluorescence: 520 nm).
Floating PBMCs were recovered from the PBMCs cultured overnight, and 7 mL of PBS was added thereto, followed by centrifugation at 300 G for 8 minutes. The supernatant was removed, and the residue was suspended in 10 mL of PBS, followed by the counting of a cell number. […]

As for `CNc1ccc2oc(C[C@H]3O[C@@]4(CC[C@H]3C)O[C@H]([C@H](C)C(=O)c3ccc[nH]3)[C@H](C)C[C@H]4C)nc2c1C(=O)O` [A23187], the “fluorescence derived from calcium in immobilized cells” value was “fluorescence was able to be observed in each of substantially all the immobilized PBMCs”.
